# Laboratory results published in patent US10716756B2, “Compositions and methods for reducing reperfusion injury” (VIVACELLE BIO, INC., priority 2016, dated 2020).
# Several values for one entry are separate records, joined by “and”; a condition that tells them apart may be missing. Equal entries are not always repeated.
# How the values were obtained:
# [1] = anesthetic; cited from earlier work
# [2] = Nitric oxide uptake/content of soybean oil emulsion by mass spectrometry
# Description: Some samples (1 ml each) were left open to air in 2.0 ml tubes for 30 minutes prior to dissolved gas analysis. In other experiments the emulsion was placed into a 15 ml tube. The headspace was filled with the gas under study and the gas was allowed to enter the emulsion by equilibration over 60 minutes with the tube on its side to increase the gas emulsion interaction. 50 μL drawn from each of these fluids were injected into a Sievers purge vessel at 37° C. containing 36 ml of a mildly acidic solution consisting of 32 ml of 1M HCL and 4 ml of 0.5M ascorbic acid. […] Signals generated at m/z=32 upon injection of RL and lipid emulsion samples were integrated using Peakfit and compared to those obtained with distilled water.
# In another set of experiments we measured the uptake of nitric oxide by a commercially available 20% soybean oil emulsion, Liposyn III 20%. This emulsion contains 20% soybean oil, 1.2% egg phospholipids and 2.5% glycerin in water. Using NaOH pH was adjusted to 8.3. […] 100 ppm nitric oxide in helium was used to purge the hesdspace for two minutes taking care not to bubble the fluid. For sixty minutes the sample was allowed to reach gas-liquid equilibrium with the tube placed on its side to maximize gas-emulsion contact.
# The uptake of NO and O2 by a commercial 20% soybean oil emulsion, Liposyn, was measured using mass spectrometry. […] To approximate field conditions, no warming or respiratory support was provided. Next, 55% of blood volume was removed within 2 minutes. […] The time of clinical death was defined as the cessation of respiration. […] In 5 mice a volume of Ringer's lactate equal to the volume of blood removed was administered via the internal jugular vein over 2 minutes immediately after the loss of chest wall movement. […] In 6 mice a volume of Ringer's lactate equal to the volume of blood removed was administered via the carotid artery over 2 minutes. […] In the next set of experiments, infusing Ringers' lactate was delayed for 3 minutes. […] A volume of emulsion equal to the volume of blood that had been removed was infused.
# [3] = 1 atm; from The Engineering Toolbox; cited from earlier work
# [4] = Battion et al. 1968; cited from earlier work
# [5] = test system: human neutrophils; conditions: Simpkins et al. 1985; cited from earlier work
# [6] = published value; cited from earlier work
molecule,measurement,setting,value
[Xe] [Xenon],minimum alveolar concentration (MAC),[1],71%
O [Water],"NO Content, single sample","[2]; 100 ppm nitric oxide in helium headspace, 60 min equilibration",2.29 mol/L and 1.52 mol/L and 1.63 mol/L and 1.72 mol/L and 1.69 mol/L
same,"NO Content, Mean","[2]; 100 ppm nitric oxide in helium headspace, 60 min equilibration, 5 samples",1.77 mol/L
same,NO content,"[2]; mass spectrometry, Example 7",2.12×10^−3±0.17 moles/L
same,Oxygen Content at 25° C. and Sea level Pressure,[3],8.3 mg/L
O=O [Oxygen],solubility in lipid relative to water,[4],4.41 times
C=CCN1CC[C@]23c4c5ccc(O)c4O[C@H]2C(=O)CC[C@]3(O)[C@H]1C5 [(+) naloxone],concentration range that produces anti-inflammatory effect,[5],10^−5-10^−4 M
hemoglobin,oxygen release time,[6],17.5 ms
